Measured values published in patent US20210108198A1, “APPLICATION OF COMPOUND OR TRADITIONAL CHINESE MEDICINE EXTRACT IN PREPARATION OF NUCLEIC ACID DELIVERY AGENT AND RELATED PRODUCTS THEREOF” (INSTITUTE OF BASIC MEDICAL SCIENCES CHINESE ACADEMY OF …, priority 2017, published 2021).
Entries after “also recorded” stand apart in the source; their conditions may differ.

Legend:
[1] = tested on: MRC-5 cell; experiment: RT-qPCR detection of nucleic acid delivered by lipid into MRC-5 cells; type: cell-based
Experimental: (§1) 3.1 NCI-N87 cell (gastric cancer cell), MRC-5 cell (lung fibroblast), A549 cell (lung cancer cell) were cultured to logarithmic growth phase, and then plated to a six-well plate at cell density of 1×10^6/2 mL medium/well; MRC-5 cell was cultured in Eagle's MEM medium (MEM, Gibco); A549 cell was cultured in Ham's F-12 medium (HyClone); NCI-N87 cell was cultured in RPMI-1640 medium (HyClone); followed by incubation overnight at 37° C., and the follow-up experiments were performed after the cells were attached to the walls.
(§2) 3.3 After co-incubation with the small RNA for 3 hours, the cells were washed 2-3 times with PBS. The cells were harvested with TRIzol lysis buffer, and the total RNA was extracted. The abundance of small RNA that entered cells was detected by RT-qPCR, and the localization of RNA was detected by fluorescence in situ hybridization; protocols of each detection method were as follows:
(§3) 3.3.2 RT-qPCR Detection of Small RNA (SYBR Green Dye Method)
The stem-loop primer used in the reverse transcription process was synthesized by Beijing Tsingke Biotechnology Co., Ltd. (U6 RT primer: […] ATG (SEQ ID NO: 21); HJT-sRNA-m7 RT stem-loop primer: […] AA (SEQ ID NO: 22)).
Both the forward and reverse primers of the amplification reaction were designed and synthesized by Beijing Tsingke Biotechnology Co., Ltd. (U6 F Primer: […] (SEQ ID NO: 23), U6 R Primer: […] (SEQ ID NO: 24), HJT-sRNA-m7 F Primer: […] (SEQ ID NO: 25), HJT-sRNA-m7 R Primer: […] (SEQ ID NO: 26)).
3) The relative expression level was calculated by 2-ΔCt method.
3.1.3 After co-incubation with cells for 12-24 hours, the cells were washed twice with PBS. The cells were harvested with TRIzol lysis buffer (purchased from Sigma-Aldrich), and total RNA was extracted.

[2] = tested on: A549 cell; experiment: RT-qPCR detection of nucleic acid delivered by lipid into A549 cells; type: cell-based, human
Experimental: as §1
4) Lipid nucleic acid mixture: the mixture of lipid and HJT-sRNA-m7 prepared from the step 2 were added into cells and mixed, and the final concentration of RNA was kept at 200 nM.
as §2
3.3.1 RT-qPCR Detection of Small RNA (Taqman Probe Method)
as §3
Mixtures of soybean PC, lipid No. 11 (18:0/18:2) and lipid No. 12 (16:0/18:2), and various small RNA (see below Table 3) were prepared by the reverse evaporation method and then added into A549 cell line (the final concentration of sRNA was 200 nM); the negative control group (control) was directly added with the same concentration of sRNA; the positive control group (RNAimax) was transfected with Lipofectamine RNAimax (transfection reagent 6 μl/well). The abundance of sRNA in the cells was detected by Taqman probe after 3 hours, and the relative expression level of sRNA was calculated by 2-ΔCt method.
3.1.3 After co-incubation with cells for 12-24 hours, the cells were washed twice with PBS. The cells were harvested with TRIzol lysis buffer (purchased from Sigma-Aldrich), and total RNA was extracted. The abundance of HJT-sRNA-m7 that entered the cells was detected by RT-qPCR; the protocols were as follows:
4368813) was used to reverse transcribe sRNA to cDNA by stem-loop method (see, e.g. Real-time quantification of microRNAs by stem-loop RT-PCR, Nucleic Acids Res. 2005 Nov. 27; 33(20):e179, incorporated by reference herein).

[3] = tested on: A549 cells; experiment: Digital PCR (ddPCR) detection of the efficiency of nucleic acid delivery by lipid; type: cell-based, human
Experimental: 2.2 Experimental method: the total cellular RNA was collected and extracted by TRIzol lysis buffer according to the above methods, and reverse transcribed to cDNA using High capacity cRNA Reverse Transcription Kit, and the cDNA from different groups was subject to digital PCR reaction. Refering to the QX200 Droplet Reader and QuantaSoft Software manual for the protocols, the results were analyzed using QuantaSoft software.
2.2 Experimental method: total RNA was collected and extracted by TRIzol lysis buffer according to the above method, and reverse transcribed to cDNA using High capacity cRNA Reverse Transcription Kit, and the cDNA from different groups was subjected to digital PCR reaction. Refer to the QX200 Droplet Reader and QuantaSoft Software manual for the protocols; the results were analyzed using QuantaSoft software.
2.2 Experimental method: Total RNA was collected and extracted by TRIzol lysis buffer according to the above method, and reverse transcribed to cDNA using TaqMan™ MicroRNA Reverse Transcription KitHigh, and the cDNA from different groups was subjected to digital PCR reaction. Refer to the QX200 Droplet Reader and QuantaSoft Software manual for the protocols; the results were analyzed using QuantaSoft software.
2.2 Experimental method: Total RNA was collected and extracted by TRIzol lysis buffer according to the above method, and reversed to cDNA using High capacity cRNA Reverse Transcription Kit, and the cDNA from different groups was subjected to digital PCR reaction. Refer to the QX200 Droplet Reader and QuantaSoft Software manual for the protocols; the results were analyzed using QuantaSoft software.

[4] = tested on: A549 cells; experiment: Flow cytometry detection of the efficiency of nucleic acid delivery by lipid; type: cell-based, human; settings: boiling method
Experimental: Experimental materials: A549 cells (purchased from the Cell Center of the Chinese Academy of Medical Sciences), FAM-sRNA (purchased from Ribobio Biotechnology Co., Ltd.), lipid No. 41, Accuri® C6 instrument (purchased from BD, USA).
Experimental methods: PGY-sRNA-6-FAM was dissolved in 100 μl water, mixed with 4 μl lipid, and prepared by boiling method. Then the mixture was dropped into A549 cells, and after 6 hours of co-incubation, the samples were collected for detection as follows: firstly wash three times with PBS, then digest with trypsin for 3 minutes and remove trypsin, wash with PBS again and then blow down the cells. The detection was performed using Accuri® C6 instrument.
Experimental Method: PGY-sRNA-6-FAM was dissolved in 100 μl water, and mixed with 4 μl lipid, and prepared into lipid-sRNA mixture by boiling method. Then, the mixture was dropped into A549 cells, and after 6 hours of co-incubation, the samples were collected and washed three times with PBS, then digested with trypsin into single cells, washed with re-suspended with PBS and then blown down for Accuri® C6 instrument detection.
Experimental Method: FAM-sRNA was dissolved in 100 μl water, and mixed with 4 μl lipid, prepared by boiling method. Then, the lipid-sRNA mixture was dropped into A549 cells, and after 6 hours of co-incubation, the samples were collected and washed three times with PBS, then digested into single cells with trypsin, re-suspended with PBS and then blown down for Accuri® C6 instrument detection.

[5] = tested on: A549 cells; experiment: Confocal fluorescence microscopy of nucleic acid delivered by lipid in cells; type: cell-based, human; settings: 4 μl lipid, boiling method; 6 hours of co-incubation
Experimental: Experimental materials: A549 cells (purchased from the Cell Center of the Chinese Academy of Medical Sciences), PGY-sRNA-6-Cy3 (purchased from Ribobio Biotechnology Co., Ltd.), lipid No. 41, Zeiss LSM780 (purchased from Zeiss, Germany), Alexa Fluor® 488 phalloidin (purchased from Invitrogen, USA), DAPI (purchased from Invitrogen, USA), paraformaldehyde (purchased from sigma, USA).
Experimental methods: PGY-sRNA-6-FAM was dissolved in 100 μl water, mixed with 4 μl lipid, and prepared by the boiling method. Then the mixture was dropped into A549 cells, and after 6 hours of co-incubation, the samples were washed three times with PBS, fixed with 4% paraformaldehyde, washed three times with PBS, stained with Alexa Fluor® 488 phalloidin for 30 min, washed 3 times with PBS, and stained with DAPI for 5 min, washed with PBS, and then sealed.
Experimental method: PGY-sRNA-6-FAM was dissolved in 100 μl water, and mixed with 4 μl lipid, and prepared by boiling method. Then, the mixture was dropped into A549 cells, and after 6 hours of co-incubation, the samples were washed three times with PBS, fixed with 4% paraformaldehyde, washed three times with PBS, stained with Alexa Fluor® 488 phalloidin for 30 min, washed 3 times with PBS, and stained with DAPI for 5 min, PBS washed, and then sealed.

[6] = In vivo delivery of single-stranded sRNA by single lipid via gavage (blood, stomach, small intestine, liver); parameters: species or system C57 mice; settings: 10 μl lipid, 1 nmol each sRNA (PGY-sRNA-23/-26/-32), heating method, 6 hours or 12 hours after administration
Description: Tissues sampled: live/stomach/small intestine.

[7] = boiling (heating) method, RNA 100 nM, 12 hours (No. 37: 3 hours)
[8] = boiling (heating) method, RNA 100 nM, 2.5 μL single lipid, 12 hours
[9] = reverse evaporation method, 6 hours (No. 39: 6 hours, 12 hours)

Structure (SMILES) | amount of HJT-sRNA-m7 that entered the cells (RT-qPCR) ([1]; Example 2-1, FIG. 33, double-stranded 100 nM, boiling method 100° C. 30 min, 24 hours) | delivery of double-stranded HJT-sRNA-m7 by single lipid (real-time PCR) ([1]; boiling (heating) method, RNA 100 nM) | delivery of single-stranded HJT-sRNA-m7 by single lipid (real-time PCR) [1, 7] | delivery of double-stranded HJT-sRNA-m7 by single lipid (real-time PCR) [2, 8] | delivery of single-stranded HJT-sRNA-m7 by single lipid (real-time PCR) [2, 7] | delivery of HJT-sRNA-m7 dsRNA (ddPCR) ([3]; boiling method, 6 hours) | delivery of HJT-sRNA-m7 dsRNA (ddPCR) [3, 9] | efficiency in delivering PGY-sRNA-6 single-stranded RNA (flow cytometry) ([4]; PGY-sRNA-6-FAM, 4 μl lipid, 6 hours of co-incubation) | efficiency of nucleic acid delivery by flow cytometry, in words ([4]; PGY-sRNA-6-FAM, 6 hours) | entry of PGY-sRNA-6-Cy3 observed under the confocal microscopy [5] | entry of single-stranded small RNA into mouse blood (RT-qPCR) [6] | delivery effect relative to RNAiMAX (real-time PCR) ([2]; double-stranded HJT-sRNA-m7 100 nM, boiling method, 12 hours, FIG. 96) | delivery of double-stranded HJT-sRNA-m7 by single lipid (real-time PCR) ([2]; reverse evaporation method, RNA 100 nM, 12 hours) | efficiency of delivering PGY-sRNA-6 single-stranded RNA relative to RNAiMAX (flow cytometry) ([4]; 6 hours, FIG. 97)
CCCCCC/C=C\CCCCCCCC(=O)O[C@H](COC(=O)CCCCCCCCCCCCCCC)COP(=O)(O)OCCN [No. 38, (2-aminoethoxy)[(2R)-2-[(9Z)-hexadec-9-enoyloxy]-3-(hexadecanoyloxy)propoxy]phosphinic acid] | effectively delivered nucleic acids into MRC-5 cells, showing an effect close to the transfection reagent RNAiMAX | delivered double-stranded RNA into A549 and MRC-5 cells; also recorded: about twice that of RNAiMAX | the efficiency of delivery was much higher than that of RNAiMAX | delivered double-stranded RNA into A549 and MRC-5 cells | the efficiency of delivery was much higher than that of RNAiMAX | could effectively deliver HJT-sRNA-m7 dsRNA into A549 cells | could effectively deliver HJT-sRNA-m7 dsRNA into A549 cells | 72.5% | close to that of the positive control RNAiMAX | could effectively deliver double-stranded nucleic acid into A549 cells | could effectively deliver sRNA single-stranded nucleic acid into mouse blood via oral administration; also recorded: the delivery effect was better than POPC and Lipofectamine RNAiMAX |  |  | 
CCCCCC/C=C\CCCCCCCCCC(=O)O[C@H](COC(=O)CCCCCCC/C=C\CCCCCC)COP(=O)(O)OCCN [No. 39, (2-aminoethoxy)[(2R)-3-[(9Z)-hexadec-9-enoyloxy]-2-[(11Z)-octadec-11-enoyloxy]propoxy] phosphinic acid] |  |  |  |  |  |  | could effectively deliver HJT-sRNA-m7 dsRNA into A549 cells |  |  |  |  |  |  | 
CCCCCCCC/C=C\CCCCCCCCCCCCCC(=O)O[C@H](COC(=O)CCCCCCCCCCCCCC)COP(=O)(O)OCCN [No. 64, 1-pentadecanoyl-2-nervonoyl-sn-glycero-3-phosphoethanolamine] |  |  |  | delivered HJT-sRNA-m7 double-stranded RNA into A549 cells |  |  |  |  |  | could effectively deliver single-stranded RNA into A549 cells | could effectively deliver sRNA single-stranded nucleic acid into mouse blood via oral administration; also recorded: the delivery effect was better than POPC and Lipofectamine RNAiMAX | about 3 times that of RNAiMAX | delivered HJT-sRNA-m7 double-stranded RNA into A549 cells | ½
